Data from ChEMBL document CHEMBL1201862, “PubChem BioAssay data set” (2004).
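48-hour exposure; five concentrations; linearly interpolated endpoints. GI50 marks 50% less growth.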 The source made the active and inactive calls. Rule as the data show it: active = GI50 up to about 1.1 µM and inactive = higher.

How the values were obtained:
Assay in all cases: DTP human tumour cell line panel, 48 h
786-0 = test system: 786-0
A498 = test system: A498
A549 = test system: A549
ACHN = test system: ACHN
BT-549 = test system: BT-549
CAKI-1 = test system: CAKI-1
CCRF-CEM = test system: CCRF-CEM
COLO 205 = test system: COLO 205
DU-145 = test system: DU-145
EKVX = test system: EKVX
HCC 2998 = test system: HCC 2998
HCT-116 = test system: HCT-116
HCT-15 = test system: HCT-15
HL-60 = test system: HL-60
HOP-62 = test system: HOP-62
HOP-92 = test system: HOP-92
HT-29 = test system: HT-29
Hs-578T = test system: Hs-578T
IGROV-1 = test system: IGROV-1
K562 = test system: K562
KM12 = test system: KM12
LOX IMVI = test system: LOX IMVI
M14 = test system: M14
MCF7 = test system: MCF7
MDA-MB-231 = test system: MDA-MB-231
MDA-MB-435 = test system: MDA-MB-435
MDA-N = test system: MDA-N
MOLT-4 = test system: MOLT-4
Malme-3M = test system: Malme-3M
NCI-H226 = test system: NCI-H226
NCI-H23 = test system: NCI-H23
NCI-H460 = test system: NCI-H460
NCI-H522 = test system: NCI-H522
NCI/ADR-RES = test system: NCI/ADR-RES
OVCAR-3 = test system: OVCAR-3
OVCAR-4 = test system: OVCAR-4
OVCAR-5 = test system: OVCAR-5
OVCAR-8 = test system: OVCAR-8
PC-3 = test system: PC-3
RPMI-8226 = test system: RPMI-8226
RXF 393 = test system: RXF 393
SF-268 = test system: SF-268
SF-295 = test system: SF-295
SF-539 = test system: SF-539
SK-MEL-28 = test system: SK-MEL-28
SK-MEL-2 = test system: SK-MEL-2
SK-MEL-5 = test system: SK-MEL-5
SK-OV-3 = test system: SK-OV-3
SN12C = test system: SN12C
SNB-19 = test system: SNB-19
SR = test system: SR
SW-620 = test system: SW-620
T47D = test system: T47D
TK-10 = test system: TK-10
U-251 = test system: U-251
UACC-257 = test system: UACC-257
UACC-62 = test system: UACC-62
UO-31 = test system: UO-31
SNB-75 = test system: SNB-75

Measured: GI50

Cc1ccc2nc(C(=O)O)c(=O)[nH]c2c1
> 100 µM: HCT-15
inactive: 786-0 > 100 µM | A498 > 100 µM | A549 > 100 µM | ACHN > 100 µM | BT-549 > 100 µM | CAKI-1 > 100 µM | CCRF-CEM > 100 µM | COLO 205 > 100 µM | DU-145 > 100 µM | EKVX > 100 µM | HCC 2998 > 100 µM | HCT-116 > 100 µM | HL-60 > 100 µM | HOP-62 > 100 µM | HOP-92 > 100 µM | HT-29 > 100 µM | Hs-578T > 100 µM | IGROV-1 > 100 µM | K562 > 100 µM | KM12 > 100 µM | LOX IMVI > 100 µM | M14 > 100 µM | MCF7 > 100 µM | MDA-MB-231 > 100 µM | MDA-MB-435 > 100 µM | MDA-N > 100 µM | MOLT-4 > 100 µM | Malme-3M > 100 µM | NCI-H226 > 100 µM | NCI-H23 > 100 µM | NCI-H460 > 100 µM | NCI-H522 > 100 µM | NCI/ADR-RES > 100 µM | OVCAR-3 > 100 µM | OVCAR-4 > 100 µM | OVCAR-5 > 100 µM | OVCAR-8 > 100 µM | PC-3 > 100 µM | RPMI-8226 > 100 µM | RXF 393 > 100 µM | SF-268 > 100 µM | SF-295 > 100 µM | SF-539 > 100 µM | SK-MEL-28 > 100 µM | SK-MEL-2 > 100 µM | SK-MEL-5 > 100 µM | SK-OV-3 > 100 µM | SN12C > 100 µM | SNB-19 > 100 µM | SR > 100 µM | SW-620 > 100 µM | T47D > 100 µM | TK-10 > 100 µM | U-251 > 100 µM | UACC-257 > 100 µM | UACC-62 > 100 µM | UO-31 > 100 µM

CC(=O)O[C@H]1C(=O)[C@@]2(C)[C@H]([C@H](OC(=O)c3ccc([N+](=O)[O-])cc3)[C@]3(O)C[C@H](OC(=O)[C@H](O)[C@@H](NC(=O)c4ccccc4)c4ccccc4)C(C)=C1C3(C)C)[C@]1(OC(C)=O)CO[C@@H]1C[C@@H]2O
> 25 µM: HCT-15
inactive: 786-0 > 25 µM | A498 > 25 µM | A549 > 25 µM | ACHN > 25 µM | BT-549 > 25 µM | CAKI-1 > 25 µM | CCRF-CEM > 25 µM | COLO 205 > 25 µM | DU-145 > 25 µM | EKVX > 25 µM | HCC 2998 > 25 µM | HCT-116 > 25 µM | HL-60 > 25 µM | HOP-62 > 25 µM | HOP-92 > 25 µM | HT-29 > 25 µM | Hs-578T > 25 µM | IGROV-1 > 25 µM | K562 > 25 µM | KM12 > 25 µM | M14 > 25 µM | MCF7 > 25 µM | MDA-MB-231 > 25 µM | MDA-MB-435 > 25 µM | MDA-N 16.8 µM | MOLT-4 > 25 µM | Malme-3M > 25 µM | NCI-H226 > 25 µM | NCI-H23 > 25 µM | NCI-H460 > 25 µM | NCI-H522 > 25 µM | NCI/ADR-RES > 25 µM | OVCAR-4 > 25 µM | OVCAR-5 > 25 µM | OVCAR-8 > 25 µM | PC-3 > 25 µM | RPMI-8226 > 25 µM | RXF 393 > 25 µM | SF-268 > 25 µM | SF-295 > 25 µM | SF-539 > 25 µM | SK-MEL-28 > 25 µM | SK-MEL-5 > 25 µM | SK-OV-3 > 25 µM | SN12C > 25 µM | SNB-19 > 25 µM | SNB-75 > 25 µM | SR > 25 µM | SW-620 > 25 µM | T47D > 25 µM | TK-10 > 25 µM | U-251 > 25 µM | UACC-257 > 25 µM | UACC-62 > 25 µM | UO-31 > 25 µM
